One test concerns the target human recombinant FGFR1 (Homo sapiens, UniProt P11362). The test is described as follows: FGFR1 enzyme assay (LabChip EZ Reader).
In the next test the test system is FGFR3_S249C/NIH3T3 cells. The test can be described thus: Growth assay of cells with forced expression of mutant FGFR3. Format: cell-based. The conditions noted are these: Mus musculus, NIH3T3, 120 h; 5 days after addition, CellTiter-Glo; read-out: IC50 (growth inhibition). The method, then: FGFR3_S249C/NIH3T3 cells were added to a 96-well spheroid plate (U bottom) at a concentration of 3000 cells/well/90 μL, and the compound solution (10 μL) was added thereto on the next day (final DMSO concentration: 0.1%). The compound solution was prepared by serially diluting the compound with DMSO at a 3-fold common ratio (9 portions and DMSO only) from the maximum concentration of 10 mM and then diluted 100-fold with a culture medium (D-MEM, 10% FBS). 5 days after the addition of the compound, the growth inhibition caused by the compound was evaluated by Promega (G7573) CellTiter-Glo™ Luminescent Cell Viability Assay.
(ATP-based viability assays read luminescence as a measure of living cells.)

The next test concerns the target human recombinant FGFR3 (Homo sapiens, UniProt P22607). The test is described as follows: FGFR3 enzyme assay (LabChip EZ Reader).
For test [1], the system named is UM-UC-14 (FGFR3_S249C-positive cells, bladder cancer). The test is described as follows: Antitumor test on UM-UC-14 subcutaneous xenograft. Format: in vivo, nude mice. Particulars: oral, once a day; for inhibition in vivo at 1 mg/kg/day / Antitumor Activity, % regression: 1 mg/kg/day; for Antitumor Activity, % regression: tumor volume at Day 11 vs Day 1. As for the experimental part:
3×10^6 UM-UC-14 cells per 0.1 mL (PBS+matrigel, 1:1) were inoculated subcutaneously into the right flank of nude mice (CAnN, Cg-Foxn1nu/CrlCrlj (nu/nu), male, 4- to 5-week-old), and when their tumor size reached about 250 mm^3, drug administration was started (Day 1). The drug was administered once a day and the tumor size was measured with a caliper and the body weight was also measured every two or three days. The antitumor effect was finally determined based on the tumor volume (mm^3; minor axis (mm)×minor axis (mm)×major axis (mm)/2) at Day 11 (n=3-5). To the control group, 0.5% MC (methyl cellulose) was administered. […] “% regression” indicates what percentage of regression could be achieved compared with the tumor volume at Day 1. Here, the tumor volume at Day 1 means tumor volume immediately before drug administration.

Another test addresses human recombinant FGFR2 (Homo sapiens, UniProt P21802). The test is described as follows: FGFR2 enzyme assay (LabChip EZ Reader).
Test [2] relates to FGFR3-TACC3_v4-expressing NIH3T3 cells. The test is described as follows: Anchorage-independent cell growth inhibition, spheroid plate. Format: cell-based. Particulars: Mus musculus, NIH3T3, 96 h, 4 days, read-out: growth inhibition rate v4; for inhibition at 0.001 µM: 1 nM; for inhibition at 0.01 µM: 10 nM. The source says:
Measurement for anchorage-independent cell growth (colony method, etc.) is known to be a system for investigating the anticancer action (pharmacological effect) of compounds (Clinical Oncology, second edition, Cancer and Chemotherapy Publishers Inc.). As a method for measuring the non-adhesive growth of cells, there is the following method using a spheroid plate as referred to above in place of the colony method.
In a 96-well spheroid plate (Sumilon Celltight Spheroid 96U; Sumitomo Bakelite), FGFR3-TACC3_v1-expressing NIH3T3 cells, FGFR3-TACC3_v2-expressing NIH3T3 cells, FGFR3-TACC3_v3-expressing NIH3T3 cells, and FGFR3-TACC3_v4-expressing NIH3T3 cells were each seeded at 1×10^3 cells per well in D-MEM media (Invitrogen) containing 10% fetal bovine serum. […] A well supplemented with only medium was also prepared for a positive control. Culturing was performed overnight in the presence of 5% CO2 at 37° C. followed by addition of test compounds (final concentrations: 100 nM, 10 nM, and 1 nM). As a negative control, DMSO used as a solvent for the compounds was added at the same concentration (0.1%) as in the case of addition of the compounds. Then, culturing was performed in the presence of 5% CO2 at 37° C. for 4 days, and a cell counting reagent (CellTiter-Glo™ Luminescent Cell Viability Assay; Promega) was added and the resulting mixture was stirred for 20 minutes followed by measurement with a luminometer.

For test [3], the system named is bladder cancer patient-derived cell line RT4. The test is described as above. Format: cell-based. The conditions noted are these: Homo sapiens, 96 h, 4 days, read-out: growth inhibition rate RT4; for inhibition at 0.001 µM: 1 nM; for inhibition at 0.01 µM: 10 nM; for inhibition at 0.1 µM: 100 nM.
Test [4] has as its system FGFR3-TACC3_v1 (N-FLAG) fusion polypeptide. The test is described as follows: In vitro kinase activity inhibition (HTRF KinEASE-TK). Format: biochemical, human. Particulars: 100 μM ATP.
The test system of test [5] is FGFR3-TACC3_v2 (N-FLAG) fusion polypeptide. Described as above. The conditions noted are these: 100 μM ATP. Format: biochemical, human.
The subject of test [6] is FGFR3-TACC3_v3 (N-FLAG) fusion polypeptide. Described as above. Format: biochemical, human. Particulars: 100 μM ATP.
The subject of test [7] is FGFR3-BAIAP2L1-expressing NIH3T3 cells. The test is described as follows: Anchorage-independent cell growth inhibition, spheroid plate. Format: cell-based. Particulars: Mus musculus, NIH3T3, 96 h, 4 days, read-out: growth inhibition rate FGFR3-BAIAP2L1-expressing NIH3T3 Cells; for inhibition at 0.001 µM: 1 nM; for inhibition at 0.01 µM: 10 nM. As for the experimental part:
In a 96-well spheroid plate (Sumilon Celltight Spheroid 96U; Sumitomo Bakelite), FGFR3-BAIAP2L1-expressing NIH3T3 cells were seeded at 1×10^3 cells per well in D-MEM medium containing 10% fetal bovine serum. A well supplemented with only medium was also prepared for a positive control. Culturing was performed overnight in the presence of 5% CO2 at 37° C. followed by addition of test compounds (final concentrations: 100 nM, 10 nM, and 1 nM). As a negative control, DMSO used as a solvent for the compounds was added at the same concentration (0.1%) as in the case of addition of the compounds. Then, culturing was performed in the presence of 5% CO2 at 37° C. for 4 days, and a cell counting reagent (CellTiter-Glo™ Luminescent Cell Viability Assay; Promega) was added and the resulting mixture was stirred for 20 minutes followed by measurement with a luminometer.

Setting [8] is: Mus musculus, UMUC14, 264 h, tumor volume at Day 11.

A word on the IC50: it is the concentration that inhibits the measured activity by half. Usually inhibition in vivo stands for how much of the control response was suppressed. A low value points to a weak effect. As usually defined, the inhibition is the change of the read-out against control, counted positive when it falls.

Sequence of human recombinant FGFR1 (P11362 22-822): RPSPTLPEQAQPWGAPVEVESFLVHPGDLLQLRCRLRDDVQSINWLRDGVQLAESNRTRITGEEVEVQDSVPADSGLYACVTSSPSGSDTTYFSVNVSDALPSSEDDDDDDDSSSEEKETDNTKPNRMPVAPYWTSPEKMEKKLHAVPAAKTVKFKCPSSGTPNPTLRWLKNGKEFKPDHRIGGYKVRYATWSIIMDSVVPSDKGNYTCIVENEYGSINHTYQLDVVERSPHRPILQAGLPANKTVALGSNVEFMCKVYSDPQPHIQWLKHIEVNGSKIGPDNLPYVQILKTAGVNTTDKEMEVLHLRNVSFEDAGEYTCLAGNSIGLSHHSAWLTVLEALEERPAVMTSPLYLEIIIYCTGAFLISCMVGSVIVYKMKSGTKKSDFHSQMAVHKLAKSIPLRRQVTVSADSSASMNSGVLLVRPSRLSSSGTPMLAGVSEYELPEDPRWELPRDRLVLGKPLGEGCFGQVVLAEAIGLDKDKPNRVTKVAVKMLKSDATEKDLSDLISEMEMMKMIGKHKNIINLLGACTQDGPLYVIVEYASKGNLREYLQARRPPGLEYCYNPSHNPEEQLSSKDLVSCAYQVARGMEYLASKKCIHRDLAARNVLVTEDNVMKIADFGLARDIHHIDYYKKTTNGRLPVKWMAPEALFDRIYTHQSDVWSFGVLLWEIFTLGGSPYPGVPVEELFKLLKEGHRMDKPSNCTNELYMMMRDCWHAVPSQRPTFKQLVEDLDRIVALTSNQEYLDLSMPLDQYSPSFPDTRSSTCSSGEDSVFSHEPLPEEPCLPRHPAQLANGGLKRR
Sequence of human recombinant FGFR2 (P21802 22-821): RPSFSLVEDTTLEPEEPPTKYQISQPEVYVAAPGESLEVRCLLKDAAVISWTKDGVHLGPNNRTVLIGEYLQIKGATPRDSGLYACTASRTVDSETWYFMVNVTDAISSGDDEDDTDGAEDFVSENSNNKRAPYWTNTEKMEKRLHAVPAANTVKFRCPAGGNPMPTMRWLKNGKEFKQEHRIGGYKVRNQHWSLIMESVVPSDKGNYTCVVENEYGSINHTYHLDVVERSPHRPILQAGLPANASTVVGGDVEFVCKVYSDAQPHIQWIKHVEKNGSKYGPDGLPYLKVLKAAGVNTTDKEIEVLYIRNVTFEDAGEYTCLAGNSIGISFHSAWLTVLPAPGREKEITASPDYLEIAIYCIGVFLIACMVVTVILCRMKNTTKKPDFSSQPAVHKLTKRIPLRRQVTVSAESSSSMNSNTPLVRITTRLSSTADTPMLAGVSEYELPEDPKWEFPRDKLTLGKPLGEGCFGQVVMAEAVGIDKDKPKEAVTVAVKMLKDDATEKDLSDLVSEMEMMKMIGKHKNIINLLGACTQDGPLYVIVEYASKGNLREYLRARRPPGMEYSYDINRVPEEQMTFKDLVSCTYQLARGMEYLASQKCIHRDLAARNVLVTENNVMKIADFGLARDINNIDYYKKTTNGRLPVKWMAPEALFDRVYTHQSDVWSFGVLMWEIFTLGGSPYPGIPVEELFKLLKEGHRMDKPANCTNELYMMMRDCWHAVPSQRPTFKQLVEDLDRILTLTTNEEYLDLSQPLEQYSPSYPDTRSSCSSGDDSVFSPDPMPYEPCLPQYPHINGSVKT
Sequence of human recombinant FGFR3 (P22607 23-806): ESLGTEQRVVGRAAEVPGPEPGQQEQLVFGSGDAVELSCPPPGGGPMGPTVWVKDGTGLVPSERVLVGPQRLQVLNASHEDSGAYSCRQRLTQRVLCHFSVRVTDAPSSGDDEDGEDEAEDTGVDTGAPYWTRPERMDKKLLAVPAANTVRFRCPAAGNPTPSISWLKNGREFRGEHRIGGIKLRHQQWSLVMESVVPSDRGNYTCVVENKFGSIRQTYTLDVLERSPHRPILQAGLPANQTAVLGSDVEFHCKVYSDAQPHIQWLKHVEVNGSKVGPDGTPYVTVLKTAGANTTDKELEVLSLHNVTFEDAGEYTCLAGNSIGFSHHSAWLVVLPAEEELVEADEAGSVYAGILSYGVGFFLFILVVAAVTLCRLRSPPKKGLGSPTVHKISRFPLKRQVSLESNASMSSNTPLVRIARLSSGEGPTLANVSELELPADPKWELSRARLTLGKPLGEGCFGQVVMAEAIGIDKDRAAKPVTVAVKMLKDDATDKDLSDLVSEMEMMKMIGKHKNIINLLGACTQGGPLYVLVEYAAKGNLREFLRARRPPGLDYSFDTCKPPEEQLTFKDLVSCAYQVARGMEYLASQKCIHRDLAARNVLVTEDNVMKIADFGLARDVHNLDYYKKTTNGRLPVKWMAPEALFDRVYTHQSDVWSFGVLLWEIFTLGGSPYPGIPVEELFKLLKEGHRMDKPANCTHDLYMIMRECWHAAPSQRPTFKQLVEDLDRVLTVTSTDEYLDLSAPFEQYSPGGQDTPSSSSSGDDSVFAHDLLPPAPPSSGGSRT
Method for human recombinant FGFR1: (§1) The compound was diluted with a solution of dimethyl sulfoxide (DMSO) (10-fold common ratio, 4 portions) before dilution with a reaction buffer (100 mM HEPES (pH7.5), 0.003% Brij-35, 0.004% Tween 20, 0.5 mM DTT, and 10 mM MgCl2) so that the final DMSO concentration was 2%. To 4 μL of the compound solution in a 384-well plate, 2 μL each of FGFR1 enzyme (2 or 3 ng/μL), FGFR2 enzyme (2 ng/μL), or FGFR3 enzyme (6 ng/μL) which were diluted with the reaction buffer was added. […] After the reaction was stopped, the reaction mixture was measured with a LabChip EZ Reader. The IC50 values were calculated by non-linear regression based on the inhibition rates obtained.
Method for human recombinant FGFR2: as §1
Method for human recombinant FGFR3: as §1

Consider `COc1cc(Nc2ncc(CCc3c(F)c(OC)cc(OC)c3F)cn2)ccc1N1CCN(C)CC1` [Ex 7], for which the concentration for half-maximal inhibition (IC50) on human recombinant FGFR1 worked out at 2 nM.
For the molecule `COc1cc(OC)c(F)c(COc2cnc(Nc3cnn(C[C@H](O)CO)c3)nc2)c1F` [Ex 11], the values for the half-inhibitory concentration (IC50) in the test on FGFR3_S249C/NIH3T3 cells, on human recombinant FGFR1 and on human recombinant FGFR3 were 13 nM, 1 nM and 2 nM, respectively.
On to `COc1cc(OC)c(F)c(CCc2cnc(Nc3ccc(N4CCC(N5CCN(C)CC5)CC4)c(F)c3)nc2)c1F` [Example 33], for which the 50% inhibitory concentration (IC50) with FGFR3_S249C/NIH3T3 cells is 26 nM; at human recombinant FGFR1, 2 nM; at human recombinant FGFR3, 2 nM. The molecule also returned an inhibition in vivo at 1 mg/kg/day in [1] (setting [8]) of 70%.
As for `COc1cc(Nc2ncc(OCc3c(F)c(OC)cc(OC)c3F)cn2)ccc1N1CCN(C)CC1` [Example 57], the concentration for half-maximal inhibition (IC50) at human recombinant FGFR1 came to 1 nM.
As for `COc1cc(OC)c(Cl)c(COc2cnc(Nc3cnn(C4CCN(C)CC4)c3)nc2)c1Cl` [Example 71], the figures for the 50% inhibitory concentration (IC50) with FGFR3_S249C/NIH3T3 cells, at human recombinant FGFR1 and on human recombinant FGFR3 were 10 nM, 2 nM and 2 nM, respectively. Further, in test [1] (setting [8]), the inhibition in vivo at 1 mg/kg/day came to 50%.
For `COc1cc(OC)c(Cl)c(COc2cnc(Nc3cnn(C4CCNCC4)c3)nc2)c1Cl` [Example 72], the IC50 worked out at 24 nM in the test on FGFR3_S249C/NIH3T3 cells, 2 nM on human recombinant FGFR2 and 2 nM at human recombinant FGFR3. Moreover, in test [1] (setting [8]), the inhibition in vivo at 1 mg/kg/day stood at 30%.
With `COc1cc(Nc2ncc(OCc3c(F)c(OC)cc(OC)c3F)cn2)ccc1N1CCN(C2CCN(C)CC2)CC1` [Example 84], the 50% inhibitory concentration (IC50) with FGFR3_S249C/NIH3T3 cells is 16 nM; on human recombinant FGFR1, 2 nM; at human recombinant FGFR2, 2 nM; at human recombinant FGFR3, 1 nM. Moreover, the “Antitumor Activity, % regression” value in [1] is listed as 34%.
`COc1cc(Nc2ncc(OCc3c(F)c(OC)cc(OC)c3F)cn2)ccc1N1C[C@@H](C)N[C@@H](C)C1` [Example 92]: the IC50 with FGFR3_S249C/NIH3T3 cells is 7 nM; on human recombinant FGFR2, 2 nM; at human recombinant FGFR3, 1 nM. This molecule also yielded an inhibition in vivo at 1 mg/kg/day in test [1] (setting [8]) of 49%.
As to `COc1cc(Nc2ncc(OCc3c(F)c(OC)cc(OC)c3F)cn2)ccc1N1CCC2(CCNCC2)CC1` [Example 95], the half-maximal inhibitory concentration (IC50) turned out to be 57 nM with FGFR3_S249C/NIH3T3 cells and 2 nM on human recombinant FGFR3. Also, the inhibition in vivo at 3 mg/kg/day in [1] (Mus musculus, UMUC14, 264 h, 3 mg/kg/day, tumor volume at Day 11) was 97%.
As for `COc1cc(OC)c(F)c(COc2cnc(Nc3cnn(CCN4CCN(C)CC4)c3)nc2)c1F` [Example 114], the IC50 was found to be 7 nM with FGFR3_S249C/NIH3T3 cells, 2 nM at human recombinant FGFR1 and 1 nM at human recombinant FGFR3. Moreover, in test [1], the “Antitumor Activity, % regression” value was determined as 33%.
Regarding `COc1cc(OC)c(F)c(COc2cnc(Nc3cnn(CC(=O)N4CC(O)C4)c3)nc2)c1F` [Example 115], the IC50 with FGFR3_S249C/NIH3T3 cells amounted to 36 nM; at human recombinant FGFR1 it was 2 nM; at human recombinant FGFR3, 2 nM. Further, the inhibition in vivo at 1 mg/kg/day in [1] (setting [8]) is 70%.
For the molecule `COc1cc(OC)c(F)c(COc2cnc(Nc3cnn(C[C@@H](O)CO)c3)nc2)c1F` [Example 116], the IC50 in the test with FGFR3_S249C/NIH3T3 cells was 8 nM; on human recombinant FGFR1, 1 nM; on human recombinant FGFR3, 2 nM. Besides, in test [1], the “Antitumor Activity, % regression” value was found to be 54%. In addition, the results for the inhibition at 0.001 µM in [2], in test [3] and in test [7] were 11%, 8% and 15%, respectively. For the same molecule, the figures for the inhibition at 0.01 µM in [2], in test [3] and in test [7] were 70%, 39% and 74%, respectively. Besides, in test [3], the inhibition at 0.1 µM is 63%. Further, the results for the “rate of inhibiting kinase activity v1” value in [4] (10 nM) and in test [4] (100 nM) were 79% and 95%, respectively. Moreover, the “rate of inhibiting kinase activity v2” value in [5] (1 nM) came to 22%; in [5] (10 nM) it was 73%; in test [5] (100 nM) it was 95%. The “rate of inhibiting kinase activity v3” value came out at 41% in test [6] (1 nM) and 96% in test [6] (100 nM).
Turning to `COc1cc(OC)c(F)c(COc2cnc(Nc3cc(CN4CCN(C)CC4)n(C)n3)nc2)c1F` [Example 248], the figures for the 50% inhibitory concentration (IC50) with FGFR3_S249C/NIH3T3 cells, on human recombinant FGFR1 and at human recombinant FGFR3 were 50 nM, 4 nM and 5 nM, respectively. For the same molecule, the inhibition in vivo at 1 mg/kg/day in test [1] (setting [8]) was found to be 95%. The values for the inhibition at 0.001 µM in test [2], in [3] and in test [7] were -5%, 3% and -3%, respectively. Further, the values for the inhibition at 0.01 µM in [2], in [3] and in test [7] were 26%, 10% and 19%, respectively. Besides, the inhibition at 0.1 µM in test [2] (100 nM) was 83%; in [3], 43%; in test [7] (100 nM), 82%. Besides, the entries for the “rate of inhibiting kinase activity v1” value in [4] (1 nM), in test [4] (10 nM) and in [4] (100 nM) were 7%, 40% and 86%, respectively. For the same molecule, the “rate of inhibiting kinase activity v2” value in [5] (1 nM) was 6%; in test [5] (10 nM), 25%; in test [5] (100 nM), 78%. The entries for the “rate of inhibiting kinase activity v3” value in test [6] (1 nM), in test [6] (10 nM) and in test [6] (100 nM) were 30%, 55% and 91%, respectively.

(Values after US9464077B2, “Nitrogen-containing aromatic heterocyclic compound” (Astellas Pharma Inc., priority 2012, dated 2016).)
